Assay results as given in a melting point compilation (Tetko et al.; mined from patent text by program, amines drawn as free bases though some values may be those of a salt).

Row | Compound | melting point [°C]
1 | c1ccc(CN2CCC3(Cc4ccccc4O3)C2)cc1 (stereo not given) | 43 to 45
2 | CSC(=O)C(=O)c1ccc2oc(-c3ccccc3)cc2c1 | 124 to 126
3 | CCCOc1nc2cccc(C(=O)O)c2n1Cc1ccc(-c2ccccc2-c2nc(=O)o[nH]2)cc1 | 170 to 172
4 | Cc1c(C(F)(F)F)nn(C(C)C)c1O | 150 to 153
5 | Cc1[nH]c(=O)c2c(ccc3nc(Nc4c(Cl)cccc4Cl)n(C)c32)c1CCN1CCOCC1 | 285 to 290
6 | O=C(Nc1ccc(OCc2ccncc2)c2ccccc12)c1cc(F)cc(OC2CCCCC2)c1 | 176 to 178
7 | N#CCCNC(=O)c1n[nH]cc1NC(=O)c1ccc2c(c1)CCO2 | 206 to 207
8 | CC(C(=O)O)c1ccc2c(=O)c3ccccc3ccc2c1 (stereo not given) | 108 to 110
9 | CN1CCNC1=C[N+](=O)[O-] | 142 to 144
10 | COCCC(=O)Nc1cccc(-c2cccc3cc(Cc4cccc(C(F)(F)F)c4)sc23)c1 | 102 to 103
11 | CCCC(C)(C)NC(=O)n1nc(C)n(N)c1=O | 110
12 | CN(CCCNc1ncc(Cc2ccc(O)cc2)c(=O)[nH]1)c1ccccn1 | 109 to 111
13 | CC(OC(=O)Nc1ccc(-c2ncn(-c3ccc(OC(F)(F)F)cc3)n2)cc1)C(F)(F)C(F)(F)F (stereo not given) | 171 to 173
14 | Cc1nn(-c2ccc(Cl)c3c2CC(C)O3)c(=O)n1C(F)F (stereo not given) | 78 to 79
15 | COC(=O)c1ccc(F)c2c1C=CCO2 | 73.5 to 74.5
16 | Cc1cc2cc(CN3CCCC3)cnc2cc1NC(=O)c1ccc(-c2cc3ccccc3o2)cc1 | 219
17 | CCOC(=O)c1c(C)[nH]c(CC)c1C | 108 to 109
18 | COC(=O)c1cc(-c2ccc(Cl)c(C)c2)n(Cc2ccc(C)cc2)n1 | 98
19 | CC(=O)OC1CSC(Oc2cc(F)cnc2Cl)C(OC(C)=O)C1OC(C)=O (stereo not given) | 185
20 | OC(CNCCCCCCOCCCCc1ccccc1)c1ccc2c(n1)COC(c1ccccc1)O2 (stereo not given) | 67 to 73
21 | N#Cc1cccc(-c2ccccn2)n1 | 136 to 137
22 | CS(=O)(=O)Nc1ccc(N2CCN(Cc3ccc(-c4ccccc4)o3)CC2)cc1 | 178
23 | Clc1nc(Nc2ccccc2)c2ccccc2n1 | 194 to 196
24 | Cc1ccc(OCc2nc3nccnc3c(=O)[nH]2)cc1 | 232 to 233
25 | CCn1c(=O)c(=O)[nH]c2cc([N+](=O)[O-])c(-n3cccc3)cc21 | > 300

Row | Compound | melting point [°C]
26 | COc1cc(OCC2CCCO2)ccc1/C=C/C(=O)CC(=O)/C=C/c1ccc2cc[nH]c2c1 (stereo not given) | 159 to 161
27 | O=C1c2ccccc2C(=O)N1CCCCCCCCCCOc1ccc(-n2ccnc2)cc1 | 90 to 91
28 | CCOC(=O)C1=C(CO)NC(C(F)(F)F)=C(C(=O)OCC)C1c1cccc2nonc12 (stereo not given) | 110 to 111
29 | CCn1c2ccccc2c2[nH]c(=O)c3nccn3c21 | 315
30 | Cc1snc(O)c1C#N | 205
31 | CC1(C)OC(=O)C(C=Nc2cncc(Br)c2)C(=O)O1 | 200 to 202
32 | O=C(O)c1ccc(OCCCCCCc2ccc3cc(O)c(O)cc3c2)cc1O | 190 to 192
33 | COc1cc(OCc2ccccn2)ccc1/C=C/c1cc(/C=C/c2c[nH]c3ccc(F)cc23)n[nH]1 | 209 to 213
34 | CCC(CC)NC(=O)CCCOc1ccc2nc3[nH]c(=O)[nH]c3cc2c1 | 312 to 314
35 | O=c1nc(-c2ccc(Cl)s2)cc(C(F)(F)F)[nH]1 | 191
36 | N#Cc1cnc2cc3c(cc2c1Nc1ccc(Cl)cc1Cl)OCCN3 | 254 to 255
37 | Cc1cc(N(C)Cc2ccc(-c3ccc(Cl)cc3)nc2)ccc1OCC(=O)O | 174 to 176
38 | COc1cc(C=C2C(=O)CCc3c2ccc2c3OCO2)c([N+](=O)[O-])cc1OC | 66 to 68
39 | C#CCNC1=Nc2c(c(C)nn2C)C(c2ccccc2)=NC1 | 193 to 195
40 | CCOC(=O)c1ccc(NCCCCCCCCCCCOc2ccccc2)cc1 | 83 to 87
41 | CC(C)CC(NC(=O)C(Cc1c[nH]cn1)NC(=O)C(CC(=O)N1CCCCC1)Cc1cccc2ccccc12)C(O)C(=O)OC(C)C (mixture of isomers) | 91 to 97
42 | O=C1CCC(N2Cc3c(OCc4ccc(Cl)cc4)cccc3C2=O)C(=O)N1 (stereo not given) | 224 to 226
43 | O=C1CNC(=O)N1C1CCNCC1 | 214 to 217
44 | CCc1cc2c(cc1OC(C)=O)CCC1C2CCC2(C)C(C#N)=CCC12 (stereo not given) | 176 to 177
45 | C#CCOCCn1c(CN2CCN(C)CC2)nc2cccnc21 | 117
46 | CC(C)(C(=O)O)c1ccc(OCCCc2cc3c(cc2O)CC(CCc2ccccc2)O3)cc1 (stereo not given) | 134 to 136
47 | NNC(=O)N(O)Cc1ccc(OCc2csc(-c3ccccc3)n2)cc1 | 144 to 145
48 | COc1ccc2nc3c(C(=O)O)cccn3c(=O)c2c1 | 272 to 274
49 | CCCO/N=C(\C(=O)OC)c1csc(NC(=O)CCl)n1 | 86 to 87
50 | Nc1nnc(-c2cc3c(Oc4ccc(Cl)cc4)cncc3s2)s1 | > 270

Row | Compound | melting point [°C]
51 | C=CCNC(=O)ON=C1SCOC1C (stereo not given) | 66 to 67.5
52 | CC(C)(C)OC(=O)CN1CC(c2cccs2)SCC(N2C(=O)c3ccccc3C2=O)C1=O (stereo not given) | 151 to 152
53 | CCCCc1oc2ccccc2c1C(OC)c1cc(I)c(OCCN(CC)CC)c(I)c1 (stereo not given) | 96 to 98
54 | CCCCC(=O)CC1c2ccccc2C(=O)N1c1ccc2ccc(OC)nc2n1 (stereo not given) | 161
55 | Cc1cccc(-c2nc(-c3ccc(F)cc3)sc2-c2ccnc(N)c2)c1 | 160 to 162
56 | CCCCCC(=O)Nc1nnc(C)s1 | 203
57 | CCOP(=O)(CC(Cc1ccccc1)NS(=O)(=O)c1ccc(C)cc1)OCC (stereo not given) | 86 to 89
58 | CC(C)c1cc(-c2ccc3c(c2)OCO3)nc2[nH]nc(N)c12 | 184 to 186
59 | CCCc1ccnc2c(=O)[nH]c(-c3cc(S(=O)(=O)N4CCC(C(=O)O)CC4)ccc3OCC)nc12 | 262 to 264
60 | CCOC(=O)Cc1ccc(NC(=O)C(COc2cccc(Cl)c2)NS(=O)(=O)c2ccc(I)cc2)cc1 (racemic) | 169 to 170
61 | CCCC(=O)Nc1c(Br)cc(C(=O)OCC)cc1CN(CC)CC | 134
62 | CCCC(NC(=O)Nc1ccc(Cl)cc1)P(=O)(c1ccccc1)c1ccccc1 (stereo not given) | 275 to 278
63 | CON=Cc1cc(NC(=O)N2CCOCN2)c(Cl)cc1Cl | 205 to 208
64 | COc1ccc(C(Cc2cc(Cl)nc(Cl)c2)=NO)cc1OC1CCCC1 | 139 to 140
65 | CC(=O)Nc1ccc2c(c1)[C@@H](O)[C@H](Br)C(C)(C)O2 (relative stereo) | 170
66 | Fc1ccc([C@]2(Cn3nc[nH]c3=S)O[C@H]2c2ccccc2Cl)c(F)c1 (racemic) | 180
67 | CCOC(=O)c1ncn(-c2nn(C)cc2Cl)c1S(N)(=O)=O | 167 to 168
68 | CC(=O)OCC1OC(n2c(Cl)c(C#N)c3cc(Cl)c(Cl)cc32)C(O)C1O (stereo not given) | 103 to 104
69 | CC(C(=O)O)c1ccc2c(c1)Cc1cc(O)ccc1-2 (stereo not given) | 205 to 207
70 | Nc1cc(-c2noc(-c3cnc4ccc(-c5ccc(C(F)(F)F)cc5)cn34)n2)ccn1 | 280
71 | O=C(c1ccc(S)cc1)c1ccc([N+](=O)[O-])cc1 | 116 to 117
72 | Cc1ccc(-n2c(=O)c(N)nc3cccnc32)cc1 | > 250
73 | O=S(c1c(C(F)(F)F)[nH]c2ccccc12)C(F)(F)F (stereo not given) | 183 to 185
74 | CC(C)(C)c1cc2c(c(C(C)(C)C)c1)OC(=O)C2c1ccc(O)cc1 (stereo not given) | 187 to 190
75 | O=C1c2ccccc2C(=O)N1CSc1ccccn1 | 93 to 94

Row | Compound | melting point [°C]
76 | CCc1ccccc1S(=O)(=O)N(OCCF)C(=O)n1nc(C)n(C2CC2)c1=O | 147
77 | Brc1ccccc1Cn1c(-c2ccc3c(c2)OCO3)nc2ccccc21 | 122 to 124
78 | CCOC(=O)C(C(=O)OCC)C(=O)c1ccc(C(F)(F)F)cc1[N+](=O)[O-] | 59 to 60
79 | c1ccc2c(c1)OCc1c(-c3nc(C4CC4)no3)ncn1-2 | 169 to 173
80 | O=C1N[C@@H](SC(c2ccccc2)(c2ccccc2)c2ccccc2)[C@@H]1CO (relative stereo) | 160 to 162
81 | COc1ccc(CSC2(C(=O)O)CCCCC2)cc1 | 98
82 | O=C(O)COc1c(Br)cc(-c2c3ccccc3c(Br)c3sc4ccccc4c23)cc1Br | 259 to 261
83 | CCN(CC)C(=O)c1ccc2ccccc2c1-c1ccccc1C | 150 to 152
84 | Nc1cc(C(=O)Nc2ccc(F)cc2)ccc1OC(F)(F)F | 139 to 140
85 | COCC1COc2cc3ncnc(Nc4cccc(Br)c4)c3cc2O1 (stereo not given) | 268 to 274
86 | COc1cc2c3c(nc4ccc(Cl)cc4c3c1)-c1ccc(Cl)cc1N2C | 287 to 289
87 | CSc1ccc(-n2cnc3ccc(-c4nnc(CCc5cccc(C(F)(F)F)c5)o4)cc32)cc1 | 167 to 168
88 | Fc1cc(Cl)c2ccc(C(F)(F)F)cc2n1 | 94 to 95
89 | O=c1nc(-c2ccc([N+](=O)[O-])cc2)oc2ccccc12 | 249 to 251
90 | O=C(O)C(O)c1ccc(Cc2ccccc2)s1 (stereo not given) | 81 to 82
91 | COc1ccc(C(=O)Nc2cc(NC(=O)c3cccc(N(C)C)c3)ccc2Br)cc1OC | 184
92 | CCCCCCCCCCCCCCCCCCC1CNCCNCCNCCNCCN1 (stereo not given) | 99 to 100
93 | CCc1cc([N+](=O)[O-])c(NC(CC)COC)c([N+](=O)[O-])c1COC (stereo not given) | 54 to 55
94 | O=S(=O)(c1ccccc1)N1CCC(C(=NCc2ccc(F)cc2)c2ccc(F)cc2)CC1 | 114 to 116
95 | O=C(O)CCCC1Cc2ccc(F)cc2C1=O (stereo not given) | 106 to 107
96 | CCOC(=O)C1=Cc2cc(C)ccc2SC1C(F)(F)F (stereo not given) | 93.1 to 94.7
97 | CCc1sc2c(c1C(=O)CCCN1CCC(c3noc4cc(F)ccc34)CC1)CCN(C(C)=O)C2 | 93 to 95
98 | COc1cc(CCO[Si](C)(C)C(C)(C)C)c(C2=CC3CCC2N3C(=O)OC(C)(C)C)cn1 (stereo not given) | 75 to 76
99 | N#CC1CN1C(=O)NC(=O)C(Cl)Cl (stereo not given) | 164 to 166
100 | CC(C)=CCOC(C)C1CCC2=C3C=CC4C(C)(C)C(OC(=O)CCC(=O)O)CCC4(C)C3CCC21C (stereo not given) | 96 to 99
